Blank lines part the entries; values can stand above or below the compound they belong to.
Experiments:
[1] = target: CLIC4 (Homo sapiens, UniProt Q9Y696); assay: in situ competitive isoTOP-ABPP in […]MFP cells, light to heavy ratio […]; type: cell-based
[2] = target: T1, TXNDC17 (Homo sapiens, UniProt Q9BRA2); assay: as above; type: cell-based
T1 sequence (Q9BRA2 2-123): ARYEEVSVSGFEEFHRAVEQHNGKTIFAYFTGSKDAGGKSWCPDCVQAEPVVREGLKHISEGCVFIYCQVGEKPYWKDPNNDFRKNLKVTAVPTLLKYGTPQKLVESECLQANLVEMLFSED

[3] = target: T2, ACAT1 (Homo sapiens, UniProt P24752); assay: as above; type: cell-based
T2 sequence (P24752 34-427): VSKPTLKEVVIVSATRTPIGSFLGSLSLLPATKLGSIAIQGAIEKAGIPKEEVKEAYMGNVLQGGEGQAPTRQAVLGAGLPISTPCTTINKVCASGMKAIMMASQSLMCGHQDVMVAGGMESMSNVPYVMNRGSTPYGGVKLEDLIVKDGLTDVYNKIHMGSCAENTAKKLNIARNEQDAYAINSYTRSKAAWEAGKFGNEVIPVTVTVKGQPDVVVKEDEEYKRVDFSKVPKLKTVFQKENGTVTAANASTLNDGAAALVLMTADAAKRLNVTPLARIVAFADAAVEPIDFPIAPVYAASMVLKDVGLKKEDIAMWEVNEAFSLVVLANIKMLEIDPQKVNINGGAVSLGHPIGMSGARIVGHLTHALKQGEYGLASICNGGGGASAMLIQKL

[4] = target: T3, PPP2R1A (Homo sapiens, UniProt P30153); assay: gel-based ABPP, competition with IAyne labeling of pure protein; type: binding
[5] = target: T4, SCP2 (Homo sapiens, UniProt P22307); assay: in situ competitive isoTOP-ABPP in […]MFP cells, light to heavy ratio […]; type: cell-based
T4 sequence (P22307 1-547): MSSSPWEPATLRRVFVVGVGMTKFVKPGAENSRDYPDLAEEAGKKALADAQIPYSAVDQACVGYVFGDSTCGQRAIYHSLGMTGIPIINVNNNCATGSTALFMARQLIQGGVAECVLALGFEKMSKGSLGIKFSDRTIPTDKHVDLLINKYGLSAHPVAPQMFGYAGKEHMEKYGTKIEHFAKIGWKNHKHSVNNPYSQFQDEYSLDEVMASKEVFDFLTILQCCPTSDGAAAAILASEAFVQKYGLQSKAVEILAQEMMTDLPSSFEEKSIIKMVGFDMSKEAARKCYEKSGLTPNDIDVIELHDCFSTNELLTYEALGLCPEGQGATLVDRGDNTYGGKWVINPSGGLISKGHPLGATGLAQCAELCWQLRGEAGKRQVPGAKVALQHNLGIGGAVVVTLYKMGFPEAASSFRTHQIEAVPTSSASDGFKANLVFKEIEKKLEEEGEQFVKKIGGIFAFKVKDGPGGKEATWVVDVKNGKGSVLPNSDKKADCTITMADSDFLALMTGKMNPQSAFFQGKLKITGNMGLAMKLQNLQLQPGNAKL

[6] = target: T3, PPP2R1A; assay: gel-based ABPP, competition with IAyne labeling; type: binding
[7] = target: T3, PPP2R1A; assay: gel-based ABPP, competition with IAyne labeling of pure protein; type: binding; remark: listed apart in the source

T3 sequence (P30153 2-589): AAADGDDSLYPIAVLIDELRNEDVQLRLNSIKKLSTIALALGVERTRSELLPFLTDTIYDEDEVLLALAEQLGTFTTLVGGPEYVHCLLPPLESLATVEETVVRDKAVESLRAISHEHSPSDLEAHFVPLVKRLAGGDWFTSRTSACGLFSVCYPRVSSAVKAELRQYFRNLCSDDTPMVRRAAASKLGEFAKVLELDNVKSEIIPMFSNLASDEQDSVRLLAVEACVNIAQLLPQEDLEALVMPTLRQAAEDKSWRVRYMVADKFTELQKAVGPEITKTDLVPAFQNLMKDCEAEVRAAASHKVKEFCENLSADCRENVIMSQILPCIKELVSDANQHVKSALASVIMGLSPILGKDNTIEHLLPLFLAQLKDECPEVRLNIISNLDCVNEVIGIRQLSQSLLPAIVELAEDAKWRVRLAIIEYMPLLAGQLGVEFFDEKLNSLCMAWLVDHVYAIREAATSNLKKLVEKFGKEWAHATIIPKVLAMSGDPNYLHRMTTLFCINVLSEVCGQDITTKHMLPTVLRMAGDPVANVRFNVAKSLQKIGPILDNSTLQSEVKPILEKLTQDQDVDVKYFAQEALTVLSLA
Chain of CLIC4 (Q9Y696 2-253): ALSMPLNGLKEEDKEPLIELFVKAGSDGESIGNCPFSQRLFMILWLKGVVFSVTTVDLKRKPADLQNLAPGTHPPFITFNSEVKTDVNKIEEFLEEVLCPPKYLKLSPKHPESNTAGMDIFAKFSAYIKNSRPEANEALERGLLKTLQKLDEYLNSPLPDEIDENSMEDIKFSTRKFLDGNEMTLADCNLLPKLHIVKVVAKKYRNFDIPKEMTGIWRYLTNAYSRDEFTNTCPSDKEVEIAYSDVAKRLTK

in situ competitive isoTOP-ABPP in 231MFP cells, light to heavy ratio >5 [1]: > 5 light to heavy ratio | in situ competitive isoTOP-ABPP in 231MFP cells, light to heavy ratio >5 [2]: > 5 light to heavy ratio | in situ competitive isoTOP-ABPP in 231MFP cells, light to heavy ratio >5 [3]: > 5 light to heavy ratio | IC50 [4]: 10 µM | in situ competitive isoTOP-ABPP in 231MFP cells, light to heavy ratio >5 [5]: > 5 light to heavy ratio
Compound: DKM 2-90

IC50 [6]: 300 µM
Compound: O=C(CCl)Nc1ccc2c(c1)CCCC2 [JNS 1-37]

IC50 [7]: 0.63 µM
Compound: O=C(CCl)N(Cc1ccccc1)c1ccc2c(c1)OCCO2 [JNS 1-40]
